US8168667B2 (Galapagos NV, priority 2006, dated 2012)
Like-named read-outs stand apart in the source and are kept apart here.

Target: T1, human androgen receptor (hAR) (Homo sapiens, UniProt P10275)
T1 sequence (P10275 1-920): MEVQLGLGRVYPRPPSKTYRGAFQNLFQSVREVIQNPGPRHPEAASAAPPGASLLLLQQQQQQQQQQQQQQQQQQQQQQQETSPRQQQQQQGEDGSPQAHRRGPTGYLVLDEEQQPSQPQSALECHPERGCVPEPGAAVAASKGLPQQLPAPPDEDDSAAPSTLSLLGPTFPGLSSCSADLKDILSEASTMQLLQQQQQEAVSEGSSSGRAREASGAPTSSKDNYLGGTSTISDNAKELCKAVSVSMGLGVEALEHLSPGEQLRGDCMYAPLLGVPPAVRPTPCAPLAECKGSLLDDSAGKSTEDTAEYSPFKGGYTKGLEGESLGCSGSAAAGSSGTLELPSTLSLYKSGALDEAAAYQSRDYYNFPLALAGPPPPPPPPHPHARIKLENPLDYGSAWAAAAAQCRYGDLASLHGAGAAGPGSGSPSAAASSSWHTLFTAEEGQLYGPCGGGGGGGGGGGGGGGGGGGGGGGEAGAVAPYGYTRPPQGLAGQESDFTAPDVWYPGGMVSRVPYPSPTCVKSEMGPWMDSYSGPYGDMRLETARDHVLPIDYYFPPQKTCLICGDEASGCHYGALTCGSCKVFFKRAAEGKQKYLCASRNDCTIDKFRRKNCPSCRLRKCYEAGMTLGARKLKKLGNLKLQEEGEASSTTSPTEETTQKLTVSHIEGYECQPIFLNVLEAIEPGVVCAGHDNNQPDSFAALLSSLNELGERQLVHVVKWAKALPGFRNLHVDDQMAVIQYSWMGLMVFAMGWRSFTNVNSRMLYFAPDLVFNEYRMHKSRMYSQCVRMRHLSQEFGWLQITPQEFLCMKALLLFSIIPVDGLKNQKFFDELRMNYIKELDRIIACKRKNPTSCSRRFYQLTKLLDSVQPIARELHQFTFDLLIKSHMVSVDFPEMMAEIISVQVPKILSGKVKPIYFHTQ
Test: Functional response test: hAR transactivation (luciferase reporter) in HALP2 cells
Assay type: cell-based
Conditions: for EC50: agonism, HALP2 cells (HeLa, hAR + ARE-luciferase), 20 hours at 37° C.
Method in brief: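 HALP2 cells are HeLa cells stably transfected with CMV-driven hAR and a probasin ARE-luciferase reporter. They were seeded 24 h ahead, then exposed to compounds for 20 hours at 37° C in phenol red-free DMEM with 5% desteroided serum. Luciferase luminescence was measured after lysis; for antagonist mode, compounds were tested against increasing DHT concentrations.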

[1] = antagonism, concentration which increases the EC50 of the DHT by a factor of 2, Schild regression, HALP2 cells

| Compound | KSchild (nM) potency [1] [nM] | EC50 [nM] | KSchild (nM) potency [nM] |
| --- | --- | --- | --- |
| CCC1(c2ccc(O)cc2)C(=O)N(c2ccc(C#N)c(C(F)(F)F)c2)C(=O)N1C (stereo not drawn) [Example 183, 4-[2,5-dioxo-4-ethyl-4-(4-hydroxyphenyl)-3-methylimidazolidin-1-yl]-2-trifluoromethylbenzonitrile] | 2 |  |  |
| Cc1cc([N+](=O)[O-])ccc1N1C(=O)N(C)C(C)(c2ccc(O)cc2)C1=O (stereo not drawn) [Example 26, 3,4-dimethyl-4-(4-hydroxyphenyl)-1-(2-methyl-4-nitro-phenyl)imidazolidine-2,5-dione] | 20 |  |  |
| C=CCN1C(=O)N(c2ccc(C#N)c(C(F)(F)F)c2)C(=O)C1(C)c1ccc(O)cc1 (stereo not drawn) [Example 23, 4-[2,5-dioxo-4-(4-hydroxyphenyl)-4-methyl-3-(2-propenyl)imidazolidin-1-yl]-2-trifluoromethylbenzonitrile] | 2 |  |  |
| O=C1C(c2ccc(O)cc2)N(CCCCO)C(=O)N1c1ccc([N+](=O)[O-])c(C(F)(F)F)c1 (stereo not drawn) [Example 131] |  |  | 600 |
| N#CCN1C(=O)N(c2ccc(Cl)c(C(F)(F)F)c2)C(=O)C1c1ccc(O)cc1 (stereo not drawn) [Example 93] |  |  | 30 |
| Cc1c(N2C(=O)N(C)C(C)(c3ccc(O)cc3)C2=O)ccc(C#N)c1C(F)(F)F (stereo not drawn) [Example 38, 4-[3,4-dimethyl-2,5-dioxo-4-(4-hydroxyphenyl)imidazolidin-1-yl]-3-methyl-2-trifluoromethylbenzonitrile] |  |  | 3 |
| CN1C(=O)N(c2ccc([N+](=O)[O-])cc2)C(=O)C1c1ccc(O)cc1 (stereo not drawn) [Example 50] |  |  | 9.9 |
| Cc1cc(O)ccc1C1(C)C(=O)N(c2ccc(C#N)c(C(F)(F)F)c2)C(=O)N1C (stereo not drawn) [Example 180, 4-[3,4-dimethyl-2,5-dioxo-4-(4-hydroxy-2-methylphenyl)imidazolidin-1-yl]-2-trifluoromethylbenzonitrile] |  |  | 8 |
| O=C1C(c2ccc(O)cc2)N(Cc2ccsc2)C(=S)N1c1ccc(Cl)c(Cl)c1 (stereo not drawn) [Example 19, 1-(3,4-dichlorophenyl)-4-(4-hydroxyphenyl)-3-[(thiophen-3-yl)methyl]-2-thioxo-imidazolidin-5-one] | 154.92 | 195 |  |

Further lines, with some results ahead:

| KSchild (nM) potency [1] [nM] | EC50 [nM] | Compound | KSchild (nM) potency [nM] |
| --- | --- | --- | --- |
| 200 | 200 | CCOCCCN1C(=O)N(c2cccc(C(F)(F)F)c2)C(=O)C1c1ccc(O)cc1 (stereo not drawn) [Example 89] |  |
| 1.41 | 3.46 | C=CCN1C(=S)N(c2ccc(Cl)c(Cl)c2)C(=O)C1(C)c1ccc(O)cc1 (stereo not drawn) [Example 40, 1-(3,4-dichlorophenyl)-4-(4-hydroxyphenyl)-4-methyl-3-(2-propenyl)-2-thioxoimidazolidin-5-one] |  |
| 200 | 200 | CCOC(=O)CCN1C(=O)N(c2ccc(F)c(F)c2)C(=O)C1c1ccc(O)cc1 (stereo not drawn) [Example 76] |  |
| 4 | 4 | CN1C(=O)N(c2ccc(Cl)c(Cl)c2)C(=O)C1c1cccc(O)c1 (stereo not drawn) [Example 152, 1-(3,4-dichlorophenyl)-4-(3-hydroxyphenyl)-3-methylimidazolidine-2,5-dione] |  |
| 69.28 | 69.3 | C=CCN1C(=O)N(c2ccc(F)c(Cl)c2)C(=O)C1c1ccc(O)cc1 (stereo not drawn) [Example 63] |  |
| 34.64 | 34.6 | CCCN1C(=O)N(c2ccc(F)c(F)c2)C(=O)C1c1ccc(O)cc1 (stereo not drawn) [Example 56] |  |
| 48.99 | 49 | CCOCCCN1C(=O)N(c2ccc(Cl)c(C(F)(F)F)c2)C(=O)C1c1ccc(O)cc1 (stereo not drawn) [Example 86] |  |
| 141.42 | 141 | O=C1C(c2ccc(O)cc2)N(CCO)C(=O)N1c1ccc(F)c(C(F)(F)F)c1 (stereo not drawn) [Example 142] |  |
| 424.26 | 424 | CN(C)CCN1C(=O)N(c2cccc(C(F)(F)F)c2)C(=O)C1c1ccc(O)cc1 (stereo not drawn) [Example 120] |  |
| 15 | 15 | O=C1C(c2ccc(O)cc2)N(Cc2ccsc2)C(=O)N1c1ccc(F)c(Cl)c1 (stereo not drawn) [Example 51] |  |
